From publication PMC8741894 (2022)

Key:
[1] = tested on: MN4 (DNA, aptamer) GGCGACAAGGAAAATCCTTCAACGAAGTGGGTCGCC; experiment: ITC competition; conditions: 140 mM NaCl, 5 mM KCl; 20 mM TRIS pH 7.4, 1% DMSO, 15 °C; apparent; ART pre-bound 3:1, competitive binding model
[2] = tested on: MN19 (DNA, aptamer) GACAAGGAAAATCCTTCAACGAAGTGGGTC; experiment: UV melting, 260 nm; conditions: 137 mM NaCl, 2.7 mM KCl; PBS pH 7.4, 3% acetonitrile; Tm of complex, free MN19 shows no transition
[3] = tested on: MN4 (DNA, aptamer) GGCGACAAGGAAAATCCTTCAACGAAGTGGGTCGCC; experiment: ITC; conditions: 140 mM NaCl, 5 mM KCl, 15 °C
[4] = tested on: Hybrid DNA/RNA (DNA:RNA, duplex) GACACCUGAUUC/GAATCAGGTGTC; experiment: ITC; conditions: 140 mM NaCl, 5 mM KCl; 20 mM TRIS pH 7.4, 2.4% DMSO, 15 °C; 20 µM nucleic acid, 0.312 mM titrant
[5] = tested on: OR7 (DNA, aptamer) CAAGGAAAATCCTTCAACGAAGTGGG; experiment: ITC; conditions: 140 mM NaCl, 5 mM KCl; 20 mM TRIS pH 7.4, 2.4% DMSO, 15 °C; site 1 of 2
[6] = tested on: Hexamer (DNA, duplex) CGTACG/CGTACG; experiment: ITC; conditions: 140 mM NaCl, 5 mM KCl; 20 mM TRIS pH 7.4, 2.4% DMSO, 15 °C; site 1 of 2
[7] = tested on: MN19 (DNA, aptamer) GACAAGGAAAATCCTTCAACGAAGTGGGTC; experiment: ITC; conditions: 140 mM NaCl, 5 mM KCl; 20 mM TRIS pH 7.4, 2.4% DMSO, 15 °C; site 1 of 2
[8] = tested on: SRE RNA (RNA, hairpin) GGAGGCUCUGGCAGCUUUC; experiment: ITC; conditions: 140 mM NaCl, 5 mM KCl; 20 mM TRIS pH 7.4, 2.4% DMSO, 15 °C; 20 µM nucleic acid, 0.312 mM titrant
[9] = tested on: SS1 (DNA, junction) GGCGACGAGGAAAATCCTTCGACGAAGTAAGTCGCC; experiment: ITC; conditions: 140 mM NaCl, 5 mM KCl; 20 mM TRIS pH 7.4, 2.4% DMSO, 15 °C; site 1 of 2
[10] = tested on: poly-dT (DNA, single strand) TTTTTTTTTTTT; experiment: ITC; conditions: 140 mM NaCl, 5 mM KCl; 20 mM TRIS pH 7.4, 2.4% DMSO, 15 °C; 20 µM nucleic acid, 0.312 mM titrant
[11] = tested on: MN4 (DNA, aptamer) GGCGACAAGGAAAATCCTTCAACGAAGTGGGTCGCC; experiment: 1H NMR imino titration; conditions: sodium phosphate, no added NaCl; 20 mM phosphate pH 7.4, 5 °C; slow exchange, shifts near three-way junction
[12] = tested on: TWJ (DNA, junction) CGTGCAGCGGCTTGCCGGCACTTGTGCTTCTGCACG; experiment: ITC; conditions: 140 mM NaCl, 5 mM KCl; 20 mM TRIS pH 7.4, 2.4% DMSO, 15 °C; site 1 of 2
[13] = tested on: DDD (DNA, duplex) CGCGAATTCGCG/CGCGAATTCGCG; experiment: ITC; conditions: 140 mM NaCl, 5 mM KCl; 20 mM TRIS pH 7.4, 2.4% DMSO, 15 °C; site 1 of 2
[14] = tested on: MN4 (DNA, aptamer) GGCGACAAGGAAAATCCTTCAACGAAGTGGGTCGCC; experiment: native mass spectrometry with CID; conditions: 300 mM ammonium acetate; pH 6.8; 10 µM aptamer, 100 µM ART; non-covalent
[15] = tested on: MN19-SITS (DNA, aptamer) GACAAGGAAAATCCTTCAACGAAGTGGGTC; experiment: photochrome aptamer switch assay (fluorescence decay); conditions: 140 mM NaCl; 20 mM Tris pH 7.4, 3% DMSO, 20 °C; 0-4.2 µM ART

C=C[C@H]1CN2CC[C@H]1C[C@H]2[C@H](O)c1ccnc2ccc(OC)cc12
Kd, app [1]: 1.1 ± 0.1 µM | Tm [2]: 36.4 ± 1.2 °C

C[C@@H]1CC[C@H]2[C@@H](C)C(=O)O[C@@H]3O[C@@]4(C)CC[C@@H]1[C@]32O4
binding ([3]; 20 mM TRIS pH 7.4, 1.5% DMSO, 20 µM aptamer, 0.312 mM titrant): no

C[C@@H]1CC[C@H]2[C@@H](C)C(=O)O[C@@H]3O[C@@]4(C)CC[C@@H]1[C@]32OO4
binding [4]: no | Kd1 [5]: 0.03 ± 0.01 µM | Kd1 [6]: 0.007 ± 0.004 µM | Kd1 ([3]; 20 mM TRIS pH 7.4, 2.4% DMSO, site 1 of 2): 0.03 ± 0.01 µM | Kd1 [7]: 0.02 ± 0.01 µM | binding [8]: no | Kd1 [9]: 0.004 ± 0.002 µM | binding [10]: no | binding [11]: yes | Kd1 [12]: 0.06 ± 0.02 µM | Tm [2]: 34.8 ± 1.1 °C | Kd1 [13]: 0.10 ± 0.03 µM | binding [14]: yes | binding [15]: yes
